What was measured:
[1] = molecular target: T1, human TRPA1 (Homo sapiens, UniProt O75762); test: 45Calcium uptake assay: inhibition of AITC induced cellular uptake of radioactive calcium, human TRPA1 expressing CHO cells; format: cell-based; settings: AITC 30 μM; for inhibition at 1 µM: 1.0 μM compound, read-out: human TRPA1 Percentage inhibition at 1.0 μM; for inhibition at 10 µM: 10.0 μM compound, read-out: human TRPA1 Percentage inhibition at 10.0 μM; for IC50: class symbols
T1 construct: expressed in transfected cells; host or cells: CHO cells (G-418 selection)
Outline: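 CHO cells expressing TRPA1 were preincubated 10 min with compound (0.5% DMSO final), then given AITC (30 μM human, 10 μM rat) plus 5 μCi/ml 45Ca2+ for 3 min. Lysate radioactivity measured by scintillation; IC50 obtained by nonlinear regression of % maximal response without antagonist.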

[2] = molecular target: T2, rat TRPA1 (Rattus norvegicus, UniProt Q6RI86); test: 45Calcium uptake assay: inhibition of AITC induced cellular uptake of radioactive calcium, rat TRPA1 expressing CHO cells; format: cell-based; settings: AITC 10 μM; for inhibition at 10 µM: 10.0 μM compound, read-out: rat TRPA1 Percentage inhibition at 10.0 μM; for inhibition at 1 µM: read-out: rat TRPA1 Percentage inhibition; for IC50: class symbols
T2 construct: expressed in transfected cells; host or cells: CHO cells (Zeocin selection)
Outline: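 CHO cells expressing rat or human TRPA1 were pre-treated with compound for 10 min, then given AITC (30 μM human, 10 μM rat) plus 5 μCi/ml 45Ca2+ for 3 min; final DMSO 0.5%. Lysate radioactivity was counted by scintillation. IC50 came from nonlinear regression of concentration-response curves as % of maximal response.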

T2 sequence (Q6RI86 whole entry): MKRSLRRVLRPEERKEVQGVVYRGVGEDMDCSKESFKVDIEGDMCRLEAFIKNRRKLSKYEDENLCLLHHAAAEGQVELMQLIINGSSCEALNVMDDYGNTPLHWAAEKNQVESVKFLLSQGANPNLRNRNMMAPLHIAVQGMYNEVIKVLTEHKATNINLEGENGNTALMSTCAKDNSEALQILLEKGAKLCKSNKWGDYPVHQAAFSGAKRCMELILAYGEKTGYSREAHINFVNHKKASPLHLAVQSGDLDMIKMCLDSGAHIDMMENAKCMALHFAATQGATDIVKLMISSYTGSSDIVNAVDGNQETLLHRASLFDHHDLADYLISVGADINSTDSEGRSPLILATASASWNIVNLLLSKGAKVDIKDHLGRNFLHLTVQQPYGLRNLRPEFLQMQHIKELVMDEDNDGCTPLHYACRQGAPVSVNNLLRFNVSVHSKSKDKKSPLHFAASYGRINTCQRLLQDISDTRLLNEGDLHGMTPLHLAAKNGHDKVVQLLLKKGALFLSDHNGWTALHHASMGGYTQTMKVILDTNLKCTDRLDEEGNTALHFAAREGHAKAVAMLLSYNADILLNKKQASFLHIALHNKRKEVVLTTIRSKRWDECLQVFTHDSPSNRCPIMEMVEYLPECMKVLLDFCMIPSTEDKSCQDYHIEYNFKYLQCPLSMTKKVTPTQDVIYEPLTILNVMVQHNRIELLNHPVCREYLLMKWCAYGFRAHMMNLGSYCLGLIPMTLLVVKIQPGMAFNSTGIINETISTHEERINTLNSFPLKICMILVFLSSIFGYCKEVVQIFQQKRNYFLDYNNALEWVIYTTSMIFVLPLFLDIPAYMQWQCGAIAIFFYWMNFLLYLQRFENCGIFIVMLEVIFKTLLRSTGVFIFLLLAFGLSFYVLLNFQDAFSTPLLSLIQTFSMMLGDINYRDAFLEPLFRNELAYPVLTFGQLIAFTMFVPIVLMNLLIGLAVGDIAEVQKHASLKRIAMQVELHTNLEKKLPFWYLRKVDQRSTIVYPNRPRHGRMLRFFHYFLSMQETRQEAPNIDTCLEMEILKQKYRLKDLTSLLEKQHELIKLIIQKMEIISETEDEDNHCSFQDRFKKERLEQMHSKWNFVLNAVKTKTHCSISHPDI
T1 sequence (O75762 whole entry): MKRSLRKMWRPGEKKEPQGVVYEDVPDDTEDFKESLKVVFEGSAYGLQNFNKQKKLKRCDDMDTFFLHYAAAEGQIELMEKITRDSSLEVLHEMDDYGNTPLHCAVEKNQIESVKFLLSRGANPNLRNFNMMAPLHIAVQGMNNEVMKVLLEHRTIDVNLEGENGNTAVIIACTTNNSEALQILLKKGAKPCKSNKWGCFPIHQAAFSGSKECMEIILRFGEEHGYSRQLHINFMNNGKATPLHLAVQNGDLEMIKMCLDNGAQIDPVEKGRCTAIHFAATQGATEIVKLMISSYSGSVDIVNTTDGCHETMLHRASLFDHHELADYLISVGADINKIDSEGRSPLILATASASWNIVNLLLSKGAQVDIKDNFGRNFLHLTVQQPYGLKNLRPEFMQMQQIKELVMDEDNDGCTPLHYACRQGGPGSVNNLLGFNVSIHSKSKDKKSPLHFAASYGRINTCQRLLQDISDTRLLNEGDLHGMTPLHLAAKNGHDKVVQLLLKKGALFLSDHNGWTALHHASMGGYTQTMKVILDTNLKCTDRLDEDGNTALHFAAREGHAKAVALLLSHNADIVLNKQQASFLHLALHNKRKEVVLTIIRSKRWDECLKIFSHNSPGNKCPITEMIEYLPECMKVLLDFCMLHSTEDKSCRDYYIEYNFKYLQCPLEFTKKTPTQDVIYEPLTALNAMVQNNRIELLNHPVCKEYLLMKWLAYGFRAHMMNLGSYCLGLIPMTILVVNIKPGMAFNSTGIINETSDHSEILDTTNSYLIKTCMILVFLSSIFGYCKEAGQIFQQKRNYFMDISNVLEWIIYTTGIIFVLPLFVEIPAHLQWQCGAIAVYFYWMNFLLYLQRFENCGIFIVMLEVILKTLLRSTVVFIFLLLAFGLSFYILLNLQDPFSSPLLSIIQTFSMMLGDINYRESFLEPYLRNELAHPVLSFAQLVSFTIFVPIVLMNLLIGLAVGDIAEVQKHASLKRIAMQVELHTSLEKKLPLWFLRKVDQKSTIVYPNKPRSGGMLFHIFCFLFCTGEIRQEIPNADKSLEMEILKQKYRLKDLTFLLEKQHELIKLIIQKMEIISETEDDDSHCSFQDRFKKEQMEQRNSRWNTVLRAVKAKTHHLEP

Structure (SMILES) | inhibition at 1 µM [1] [%] | inhibition at 10 µM [1] [%] | IC50 [1] [nM] | inhibition at 10 µM [2] [%] | inhibition at 1 µM [2] [%] | IC50 [2] [nM]
Cn1c(=O)c2c(CC(=O)Nc3nc(-c4cc(Cl)c(OCC(F)(F)F)c(Cl)c4)cs3)coc2n(C)c1=O [Example 47, N1-{4-[3,5-Dichloro-4-(2,2,2-trifluoroethoxy)phenyl]-1,3-thiazol-2-yl}2-(1,3-dimethyl-2,4-dioxo-1,2,3,4-tetrahydrofuro[2,3-d]pyrimidin-5-yl)acetamide] | 99.2 | 99.8 | < 50 | 100 | 86 | < 50
Cn1c(=O)c2c(CC(=O)Nc3nc(-c4cc(F)c(OCC(F)(F)F)c(Cl)c4)cs3)coc2n(C)c1=O [Example 48, N1-{4-[3-Chloro-5-fluoro-4-(2,2,2-trifluoroethoxy)phenyl]-1,3-thiazol-2-yl}-2-(1,3-dimethyl-2,4-dioxo-1,2,3,4-tetrahydrofuro[2,3-d]pyrimidin-5-yl)acetamide] | 96.6 | 95.1 | < 50 | 99.2 | 99.6 | < 50
Cn1c(=O)c2c(CC(=O)Nc3nc(-c4cc(F)c(OCCC(F)(F)F)c(F)c4)cs3)coc2n(C)c1=O [Example 49, N1-{4-[3,5-Difluoro-4-(3,3,3-trifluoropropoxy)phenyl]-1,3-thiazol-2-yl}-2-(1,3-dimethyl-2,4-dioxo-1,2,3,4-tetrahydrofuro[2,3-d]pyrimidin-5-yl)acetamide] | 95.6 | 98.3 | < 50 | 97.7 | 86.6 | < 50
Cc1oc2c(c1CC(=O)Nc1nc(-c3ccc(OC(F)(F)F)cc3)cs1)c(=O)n(C)c(=O)n2C [Example 53, N1-{4-[4-(Trifluoromethoxy)phenyl]-1,3-thiazol-2-yl}-2-(1,3,6-trimethyl-2,4-dioxo-1,2,3,4-tetrahydrofuro[2,3-d]pyrimidin-5-yl)acetamide] | 99.7 | 97.3 | – | 100 | 100 | –
Cc1oc2c(c1CC(=O)Nc1nc(-c3ccc(Cl)c(Cl)c3)cs1)c(=O)n(C)c(=O)n2C [Example 54, N1-[4-(3,4-Dichlorophenyl)-1,3-thiazol-2-yl]-2-(1,3,6-trimethyl-2,4-dioxo-1,2,3,4-tetrahydrofuro[2,3-d]pyrimidin-5-yl)acetamide] | – | – | < 50 | – | – | 50 to 100
Cc1oc2c(c1CC(=O)Nc1nc(-c3cc(F)cc(C(F)(F)F)c3)cs1)c(=O)n(C)c(=O)n2C [Example 62, N1-{4-[3-Fluoro-5-(trifluoromethyl)phenyl]-1,3-thiazol-2-yl}-2-(1,3,6-trimethyl-2,4-dioxo-1,2,3,4-tetrahydrofuro[2,3-d]pyrimidin-5-yl)acetamide] | – | – | < 50 | – | – | < 50
Cc1oc2c(c1CC(=O)Nc1nc(-c3cc(Cl)cc(C(F)(F)F)c3)cs1)c(=O)n(C)c(=O)n2C [Example 65, N1-{4-[3-Chloro-5-(trifluoromethyl)phenyl]-1,3-thiazol-2-yl}-2-(1,3,6-trimethyl-2,4-dioxo-1,2,3,4-tetrahydrofuro[2,3-d]pyrimidin-5-yl)acetamide] | – | – | < 50 | 99.8 | 99.8 | 50 to 100
Cc1oc2c(c1CC(=O)Nc1nc(-c3ccc(C(F)(F)F)c(Cl)c3)cs1)c(=O)n(C)c(=O)n2C [Example 66, N1-{4-[3-Chloro-4-(trifluoromethyl)phenyl]-1,3-thiazol-2-yl}-2-(1,3,6-trimethyl-2,4-dioxo-1,2,3,4-tetrahydrofuro[2,3-d]pyrimidin-5-yl)acetamide] | 99.4 | 99.8 | – | 98.5 | 99.8 | –
Cc1oc2c(c1CC(=O)Nc1nc(-c3ccc(OC(F)(F)F)c(F)c3)cs1)c(=O)n(C)c(=O)n2C [Example 67, N1-{4-[3-Fluoro-4-(trifluoromethoxy)phenyl]-1,3-thiazol-2-yl}-2-(1,3,6-trimethyl-2,4-dioxo-1,2,3,4-tetrahydrofuro[2,3-d]pyrimidin-5-yl)acetamide] | – | – | < 50 | – | – | < 50
Cc1oc2c(c1CC(=O)Nc1nc(-c3ccc(F)c(OC(F)(F)F)c3)cs1)c(=O)n(C)c(=O)n2C [Example 68, N1-{4-[4-Fluoro-3-(trifluoromethoxy)phenyl]-1,3-thiazol-2-yl}-2-(1,3,6-trimethyl-2,4-dioxo-1,2,3,4-tetrahydrofuro[2,3-d]pyrimidin-5-yl)acetamide] | – | – | < 50 | – | – | < 50
Cc1oc2c(c1CC(=O)Nc1nc(-c3ccc(Cl)c(OC(F)(F)F)c3)cs1)c(=O)n(C)c(=O)n2C [Example 69, N1-{4-[4-Chloro-3-(trifluoromethoxy)phenyl]-1,3-thiazol-2-yl}-2-(1,3,6-trimethyl-2,4-dioxo-1,2,3,4-tetrahydrofuro[2,3-d]pyrimidin-5-yl)acetamide] | – | – | < 50 | – | – | < 50

The remaining lines, values ahead:

inhibition at 1 µM [1] [%] | inhibition at 10 µM [1] [%] | IC50 [1] [nM] | inhibition at 10 µM [2] [%] | inhibition at 1 µM [2] [%] | IC50 [2] [nM] | Structure (SMILES)
99.6 | 98.3 | – | 100 | 99.9 | – | Cc1oc2c(c1CC(=O)Nc1nc(-c3ccc(C(F)(F)F)cc3)cs1)c(=O)n(C)c(=O)n2C [Example 50, N1-{4-[4-(Trifluoromethyl)phenyl]-1,3-thiazol-2-yl}-2-(1,3,6-trimethyl-2,4-dioxo-1,2,3,4-tetrahydrofuro[2,3-d]pyrimidin-5-yl)acetamide]
99.8 | 100 | – | 100 | 100 | – | Cc1oc2c(c1CC(=O)Nc1nc(-c3cccc(C(F)(F)F)c3)cs1)c(=O)n(C)c(=O)n2C [Example 51, N1-{4-[3-(Trifluoromethyl)phenyl]-1,3-thiazol-2-yl}-2-(1,3,6-trimethyl-2,4-dioxo-1,2,3,4-tetrahydrofuro[2,3-d]pyrimidin-5-yl)acetamide]
99.1 | 99.2 | – | 100 | 100 | – | Cc1oc2c(c1CC(=O)Nc1nc(-c3cccc(OC(F)(F)F)c3)cs1)c(=O)n(C)c(=O)n2C [Example 52, N1-{4-[3-(Trifluoromethoxy)phenyl]-1,3-thiazol-2-yl}-2-(1,3,6-trimethyl-2,4-dioxo-1,2,3,4-tetrahydrofuro[2,3-d]pyrimidin-5-yl)acetamide]
95.8 | 99 | – | 100 | 97.7 | – | Cc1oc2c(c1CC(=O)Nc1nc(-c3cccc(Cl)c3Cl)cs1)c(=O)n(C)c(=O)n2C [Example 55, N1-[4-(2,3-Dichlorophenyl)-1,3-thiazol-2-yl]-2-(1,3,6-trimethyl-2,4-dioxo-1,2,3,4-tetrahydrofuro[2,3-d]pyrimidin-5-yl)acetamide]
– | – | < 50 | – | – | < 50 | Cc1oc2c(c1CC(=O)Nc1nc(-c3ccc(F)c(C(F)(F)F)c3)cs1)c(=O)n(C)c(=O)n2C [Example 58, N1-{4-[4-Fluoro-3-(trifluoromethyl)phenyl]-1,3-thiazol-2-yl}-2-(1,3,6-trimethyl-2,4-dioxo-1,2,3,4-tetrahydrofuro[2,3-d]pyrimidin-5-yl)acetamide]
– | – | < 50 | – | – | 50 to 100 | Cc1oc2c(c1CC(=O)Nc1nc(-c3ccc(C(F)(F)F)c(F)c3)cs1)c(=O)n(C)c(=O)n2C [Example 59, N1-{4-[3-Fluoro-4-(trifluoromethyl)phenyl]-1,3-thiazol-2-yl}-2-(1,3,6-trimethyl-2,4-dioxo-1,2,3,4-tetrahydrofuro[2,3-d]pyrimidin-5-yl)acetamide]
– | – | < 50 | 99.7 | 99.3 | 50 to 100 | Cc1oc2c(c1CC(=O)Nc1nc(-c3ccc(C(F)(F)F)cc3F)cs1)c(=O)n(C)c(=O)n2C [Example 60, N1-{-4-(2-Fluoro-4-(trifluoromethyl)phenyl]-1,3-thiazol-2-yl}-2-(1,3,6-trimethyl-2,4-dioxo-1,2,3,4-tetrahydrofuro[2,3-d]pyrimidin-5-yl)acetamide]
– | – | < 50 | – | – | < 50 | Cc1oc2c(c1CC(=O)Nc1nc(-c3cccc(C(F)(F)F)c3F)cs1)c(=O)n(C)c(=O)n2C [Example 61, N1-{4-[2-Fluoro-3-(trifluoromethyl)phenyl]-1,3-thiazol-2-yl}-2-(1,3,6-trimethyl-2,4-dioxo-1,2,3,4-tetrahydrofuro[2,3-d]pyrimidin-5-yl)acetamide]
– | – | 50 to 100 | 99.8 | 97.6 | – | Cc1oc2c(c1CC(=O)Nc1nc(-c3cc(C(F)(F)F)ccc3F)cs1)c(=O)n(C)c(=O)n2C [Example 63, N1-{4-[2-Fluoro-5-(trifluoromethyl)phenyl]-1,3-thiazol-2-yl}-2-(1,3,6-trimethyl-2,4-dioxo-1,2,3,4-tetrahydrofuro[2,3-d]pyrimidin-5-yl)acetamide]
– | – | < 50 | – | – | < 50 | Cc1oc2c(c1CC(=O)Nc1nc(-c3ccc(Cl)c(C(F)(F)F)c3)cs1)c(=O)n(C)c(=O)n2C [Example 64, N1-{4-[4-Chloro-3-(trifluoromethyl)phenyl]-1,3-thiazol-2-yl}-2-(1,3,6-trimethyl-2,4-dioxo-1,2,3,4-tetrahydrofuro[2,3-d]pyrimidin-5-yl)acetamide]
